# Source: US11058756B2, “Compositions and methods of treating autoimmune disease by reducing enterococcus” (YALE UNIVERSITY, priority 2017, dated 2021)
# Entries after “also recorded” stand apart in the source; their conditions may differ.
# Key:
# [1] = test system: Th17 and Tfh cells; assay: Th17/Tfh cell frequencies (FACS) and splenocyte cytokines (LEGENDplex) after antibiotic treatment in vivo; design: species or system mouse
# Excerpt: (§1) Mice were cohoused for 3 to 4 weeks before antibiotic treatment to allow for equilibration of the microbiota. Single antibiotic or broad-spectrum antibiotic administration consisted of metronidazole (1 g/liter; Fisher Scientific), neomycin (1 g/liter; Fisher Scientific), ampicillin (1 g/liter; Sigma) and vancomycin (0.5 g/liter; Acros Organics) in the drinking water for up to 22 weeks or a targeted regiment for 2 weeks and then replaced with regular water for the duration of the experiment. For broad-spectrum antibiotic experiments (vancomycin, ampicillin, metronidazole, and neomycin combined), sweetener (Equal, 4 g/L) was added to both the antibiotics and control water due to the metallic taste of metronidazole. Twenty-four hours after cessation of antibiotic water, mice were administered 1×10^6 CFUs of vancomycin-resistant E. gallinarum via oral gavage, isolated from liver tissue of a vancomycin-treated mouse that continued to show signs of autoimmune disease (high-level resistance was confirmed by vanC gene PCR). E. gallinarum was grown at 37° C. in Gifu Anaerobic Broth (HIMEDIA Laboratories) to early stationary phase under anaerobic conditions (82% N2, 15% CO2, 3% H2 by volume) in an anaerobic chamber and diluted in PBS to 10^7 CFUs.
# Cytokine levels were determined from culture supernatants using LEGENDplex™ (BioLegend), a bead-based immunoassay. The preformed mouse T helper cytokine panel was used. […]
# For direct ex vivo intracellular cytokine detection, cells isolated from small intestinal lamina propria, MLN or spleen were immediately treated with GolgiStop (BD Bioscience) and surface-stained in FACS buffer (PBS, 2% bovine serum albumin, 0.2 mg of sodium azide, 2 mM EDTA) for 30 minutes in the dark at room temperature with fluorescently conjugated antibodies specific for CD3, CD4, CD11b, CD11c, CD44, CD62L, CD19, CD45, CD45R (B220), CXCR5, GITR, IL-17, IFN-g, Ly6C, NK1.1, PDCA-1, PD-1 and PSGL-1. […] Cell viability was assessed with Zombie NIR Fixable Viability Kit (BioLegend).
# [2] = test system: (NZWxBXSB)F1 mice; assay: Oral antibiotics in drinking water: mortality, clinical outcome, proteinuria and organ histology in the autoimmune hybrid model; assay type: in vivo, mouse
# Excerpt: 6-week-old male (NZWxBXSB)F1 mice and C57BL/6J mice were used in this study except if noted otherwise. (NZWxBXSB)F1 were bred by mating NZW/LaJ females with BXSB/MpJ males obtained from Jackson Laboratory (Bar Harbor, Me., USA). Parental littermates of (NZWxBXSB)F1 were randomly mixed with littermates from other parental cages 21 days after birth to equilibrate the microbiomes from different cages and parental origin. All mice were maintained in a specific-pathogen-free environment. (NZWxBXSB)F1 mice were provided with water and a standard laboratory diet ad libitum (2018 Harlan Teklad, South Easton, Mass., USA). They were supplied with hardwood chips as bedding and were housed in a temperature-controlled, air-conditioned room on a 12-hr light-dark cycle. Germ-free (GF) C57BL/6 mice were kept under sterile conditions in CBC's (Class Biologically Clean, Madison, Wis., USA) Quad flexible film isolators (Softwall), exposed to a 12-hr light/dark cycle and provided standard, autoclaved tap water and mouse chow (2018S Harlan Teklad, South Easton, Mass., USA) ad libitum. To exclude a Th17 bias, a PCR for segmented filamentous bacteria (SFB) was performed on fecal DNA from all mice involving Th17 studies. Fecal SFB detection at 6-8 weeks of age that correlates with ileal SFB colonization was performed as described (Barman et al., 2008, Infect Immun, 76, 907-915; Kriegel et al., 2011, Proc Natl Acad Sci USA, 108, 11548-11553). All Th17 data was derived from SFB-negative animals.
# as §1
# Samples were obtained at autopsy and fixed in 10% neutral formalin, and histological sections were stained with hematoxylin and eosin (H&E) and scored in a blinded fashion. Glomerulonephritis was scored on a scale of 0-4 based on the intensity and extent of histopathological changes (Klopfleisch, 2013, BMC Vet Res, 9, 123). A grade of 0 was given to kidneys without glomerular lesions; grade 1 consisted of minimal thickening of the mesangium; grade 2 contained noticeable increases in both mesangial and glomerular cellularity; grade 3 was characterized by the preceding conditions with superimposed inflammatory exudates and capsular adhesions; and grade 4 consisted of obliterated glomerular architecture in greater than 70% of glomeruli. […]
smiles,measurement,setting,value
CN[C@H](CC(C)C)C(=O)N[C@H]1C(=O)N[C@@H](CC(N)=O)C(=O)N[C@H]2C(=O)N[C@H]3C(=O)N[C@H](C(=O)N[C@H](C(=O)O)c4cc(O)cc(O)c4-c4cc3ccc4O)[C@H](O)c3ccc(c(Cl)c3)Oc3cc2cc(c3O[C@@H]2O[C@H](CO)[C@@H](O)[C@H](O)[C@H]2O[C@H]2C[C@](C)(N)[C@H](O)[C@H](C)O2)Oc2ccc(cc2Cl)[C@H]1O [vancomycin],Tfh cells,"[1]; MLN of (NZWxBXSB)F1 mice treated via drinking water, FIG. 19C",reduced; also recorded: suppresses
same,Th17 cells,"[1]; spleen and MLN of (NZWxBXSB)F1 mice, SFB-negative, treated via drinking water, FIG. 19",reduced; also recorded: suppresses
same,cytokine signatures (inflammatory cytokines in splenocyte supernatants),"[1]; splenocytes stimulated with anti-CD3/anti-CD28 for 3 days, FIG. 19A",reduced; also recorded: suppresses
same,Mortality,"[2]; single antibiotic in drinking water from 6 weeks of age, followed for 30 weeks or until death, FIG. 1A",prevented
same,"autoimmune manifestations (proteinuria, organ histology scores)","[2]; single antibiotic in drinking water, FIG. 1D-1I",prevented
